The results in this text go back to patent US9056851B2, “Thiolactone antibiotics” (priority 2011, dated 2015).

This experiment deals with C171Q KasA acyl-enzyme mimic (Mycobacterium tuberculosis, UniProt P9WQD9, C171Q). Format: binding, M. tuberculosis.
Take `C=C/C(C)=C/[C@@]1(C)SC(=O)C(CCC)=C1O` [TLM4, 5R-(+)-3-Propylthiolactomycin]: the “Slow Onset” value is given as “Yes” and the “Slow or Rapid onset of binding to C171QKasA (words in Ki* column)” value (“Slow or Rapid onset of binding” below) is recorded as “Slow,”.

As to `C=C/C(C)=C/[C@@]1(C)SC(=O)C(C(=O)CCC)=C1O` [TLM38], the “Slow Onset” value was “No”. Turning to `C=C/C(C)=C/[C@@]1(C)SC(=O)C(C(C)=O)=C1O` [TLM35], the “Slow Onset” value was “Yes”. For the molecule `C=C/C(C)=C/[C@@]1(C)SC(=O)C(CCCCc2ccc(Cl)cc2)=C1O` [TLM7], the “Slow Onset” value is given as “No” and the “Slow or Rapid onset of binding” value is recorded as “Rapid”. Regarding `C=C/C(C)=C/[C@@]1(C)SC(=O)C(C(=O)CCCCCCCCCCCCCCC)=C1O` [TLM43], the “Slow Onset” value is listed as “No”. For the molecule `C=C/C(C)=C/[C@@]1(C)SC(=O)C=C1O` [TLM2, 5R-(+)-3-Demethylthiolactomycin], the “Slow Onset” value is “No” and the “Slow or Rapid onset of binding” value was “Rapid”. In the case of `C=C/C(C)=C/[C@@]1(C)SC(=O)C=C1OCC(=O)NCCN=[N+]=[N-]` [TLM40], the “Slow Onset” value is on record as “No”. Take `C=C/C(C)=C/[C@@]1(C)SC(=O)C(CCCN=[N+]=[N-])=C1O` [TLM10]: the “Slow Onset” value is on record as “Yes” and the “Slow or Rapid onset of binding” value is on record as “Slow Onset”. Take `C=C/C(C)=C/[C@@]1(C)SC(=O)C(C(=O)C(F)(F)F)=C1O` [TLM36]: the “Slow Onset” value is “Yes”. As to `C=C/C(C)=C/[C@@]1(C)SC(=O)C(CCCCc2ccc(F)cc2)=C1O` [TLM6], the “Slow Onset” value was “No” and the “Slow or Rapid onset of binding” value is on record as “Rapid”. Regarding `C=C/C(C)=C/[C@@]1(C)SC(=O)C(CCCCn2cc(CNC(=O)c3ccc(NS(=O)(=O)c4ccc(F)cc4)cc3)nn2)=C1O` [TLM34], the “Slow Onset” value was “No”. On to `C=C/C(C)=C/[C@@]1(C)SC(=O)C(CCCCc2ccc(Br)cc2)=C1O` [TLM8], for which the “Slow Onset” value is “No” and the “Slow or Rapid onset of binding” value is “Rapid”.

With `C=C/C(C)=C/[C@@]1(C)SC(=O)C(CCc2ccc(Cl)cc2)=C1O` [TLM31], the “Slow Onset” value was “No”. Same read-out and setting: with `C=C/C(C)=C/[C@@]1(C)SC(=O)C(CCCCn2cc(CNC(=O)[C@H](O)C(C)(C)CO)nn2)=C1O` [TLM33] the entry was “No”. For the molecule `C=C/C(C)=C/[C@@]1(C)SC(=O)C(C)=C1O` [TLM, 5R-(+)-Thiolactomycin], the “Slow Onset” value was “Yes” and the “Slow or Rapid onset of binding” value is reported as “Slow,”. `C=C/C(C)=C/[C@@]1(C)SC(=O)C(C(=O)OC)=C1O` [TLM37]: the “Slow Onset” value is listed as “No”. As to `C=C/C(C)=C/[C@@]1(C)SC(=O)C(CC)=C1O` [TLM3, 5R-(+)-3-Ethylthiolactomycin], the “Slow Onset” value is “Yes” and the “Slow or Rapid onset of binding” value is “Slow,”. Turning to `C=C/C(C)=C/[C@@]1(C)SC(=O)C(CCCCN=[N+]=[N-])=C1O` [TLM32], the “Slow Onset” value is on record as “Yes”. Regarding `C=C/C(C)=C/[C@@]1(C)SC(=O)C(CCc2ccc(C)cc2)=C1O` [TLM5], the “Slow Onset” value was “No” and the “Slow or Rapid onset of binding” value was “Rapid”.

On to `C=C/C(C)=C/[C@@]1(C)SC(=O)C(C(=O)CCCCc2ccc(-c3ccccc3)cc2)=C1O` [TLM45], for which the “Slow Onset” value is recorded as “No”.

`C=C/C(C)=C/[C@@]1(C)SC(=O)C(C(=O)c2ccccc2C(=O)O)=C1O` [TLM39]: the “Slow Onset” value is “No”. Turning to `C=C/C(C)=C/[C@@]1(C)SC(=O)C(CCCCc2ccc(-c3ccccc3)cc2)=C1O` [TLM9], the “Slow Onset” value is “No” and the “Slow or Rapid onset of binding” value was “Rapid”.
